Measurements: patent US8957033B2, “Inhibitor of sodium-dependent glucose transport protein and preparation method therefor and use thereof” (Beijing Prelude Pharm. SCI. & Tech. Co., Ltd., priority 2011, dated 2015)
Read-outs that look alike come from different tables or passages of the source.

What was measured:
male SD rats [1] = experiment: Oral glucose tolerance test, glucose 15 minutes after administration (Example 5); format: in vivo; conditions: 10 mg/kg orally, Mean ± SD
Procedure: Compound 1, compound 2 and compound 3 were respectively dissolved in blank solutions (5% 1-methyl-2-pyrrolidinone, 20% PEG-400 and 20 mM sodium diphosphate) in the concentration of 10 g/L.
Experimental animals are male SD rats of 6-8 weeks old, with weight of 190-215 g, which were purchased from Beijing Vital River Laboratory Animal Technology Co., Ltd. The SD rats were randomly divided into four groups based on body weight, each group containing three rats. Wherein group 1 is the blank control group in which the rats were administrated with the above blank solution.
Before the test, the rats were fasted for 16 hours and then administrated orally with the blank solution or compounds. The blood glucose baseline level was measured at 15 minutes after administration, then the rats in each group were administrated orally with 50% glucose aqueous solution in an amount of 2 g/kg. The blood samples (1 drop) were taken from tail veins of rats in each group at 15 minutes, 30 minutes, 1 hour and 2 hours after oral administration of glucose, and the blood glucose level was measured by using Accu-Chek Aviva system.
(§1) Statistical analysis was conducted and the significance level was set to be P<0.05. The mean and standard deviation were calculated for all measurement parameters which were designed for study. One-way analysis of variance (ANOVA) was performed by software GraphPad Prism 5.0 after multiple comparisons among groups.

[2] = 2 μM
Procedure: (§4) 1) Master solution was prepared according to Table 1, and then the test compounds and control compound were added into the master solution, with the final concentration of these compounds in the reaction system being 2 μM. Then the mixed solution was preheated at 37° C. for 2 minutes.
(§5) 2) NADPH was added into the mixed solution with the final concentration of NADPH being 1 mM, and then the reaction system was incubated at 37° C. The blank control was also added with the same volume of ultrapure water instead of NADPH.
(§6) 3) 50 μL aliquots were taken out from the reaction system at 0, 15, 30, 45 and 60 minutes, and added with 3 volumes of cold methanol to terminate the reaction. The aliquot was centrifugated for 10 minutes under 16000 g to precipitate proteins. 100 μL of supernatant was used for LC/MS/MS analysis, to determine the amounts of the remaining test compounds and the control compound. The aliquots were detected in duplicate.
(§7) The instruments and conditions for LC analysis were as follows:
(§8) Shimadzu (Degasser DGU—20A3, Solvent Delivery Unit LC—20ADXR, System Controller CBM—20A, Column Oven CTO—10ASVP), CTC Analytics HTC PAL—XT System
(§9) Column: Phenomenex 5μ C 18 (2) (2.0×50 mm)
(§10) The instrument and conditions for MS/MS analysis were as follows: • AB API4000 LC/MS/MS instrument • Source: Turbo spray • Ionization mode: ESI • Type of scan: MRM • Collision gas: 6 L/min; curtain gas: 30 L/min; atomized gas: 50 L/min; auxiliary gas: 50 L/min; temperature: 500° C.; spray voltage: 4500 v.

[3] = male, 2 μM
Procedure: as §4, §5, §6, §7, §8, §9, §10

male SD rats [4] = experiment: Urine glucose at end of glucose tolerance test (Example 6); format: in vivo; conditions: 10 mg/kg orally; urine collected at end of glucose tolerance test; Mean ± SD
Procedure: (§2) Preparation of the administrated drugs, and grouping and administration of the animals were the same as those in Example 5.
(§3) Before the test, the rats were fasted for 16 hours and then administrated orally with the blank solution or compounds. The blood glucose baseline level was measured at 8 hours after administration, then the rats in each group were administrated orally with 50% glucose aqueous solution in an amount of 2 g/kg. The blood samples (1 drop) were taken from tail veins of rats in each group at 15 minutes, 30 minutes, 1 hour and 2 hours after oral administration of glucose, and the blood glucose level was measured by using Accu-Chek Aviva system.
At the end of the test, urine of the rats in each group was collected, and then the urine glucose level was analyzed by using TOSHIBA TBA-40FR automatic biochemical analyzer.
as §1

male SD rats [5] = experiment: Oral glucose tolerance test, glucose 8 hours after administration (Example 6), blood glucose; format: in vivo; conditions: 10 mg/kg orally, Mean ± SD
Procedure: as §2, §3, §1

[6] = Pharmacokinetic test in vivo in SD rats; parameters: species or system male SD rats; conditions: 10 mg/kg
Procedure: Compound 1, compound 2 and compound 3 were respectively dissolved in blank solution (5% 1-methyl-2-pyrrolidinone, 20% PEG-400 and 20 mM sodium diphosphate) in a concentration of 10 g/L.
Experimental animals are male SD rats of 6-8 weeks old, with weight of 190-215 g, which were purchased from Beijing Vital River Laboratory Animal Technology Co., Ltd. The SD rats were randomly divided into seven groups based on body weight, each group containing three rats. Wherein group 1 is the blank control group in which the blank solution was administrated intravenously.
Before the pharmacokinetic test, the SD rats were fasted for 16 hours, and then administrated intravenously (1 mL/kg; 10 mg/kg) or orally (1 mL/kg; 10 mg/kg) with single dose of the compound or blank solution according to Table 4. After administration 200 uL blood samples were collected regularly through jugular vein puncture, wherein for the group of animals administered intravenously, blood samples were collected at 0 minute, 15 minutes, 30 minutes, 1 hour, 2 hours, 4 hours, 8 hours and 24 hours after administration; for the group of animals administered orally, blood samples were collected at 0 minute, 15 minutes, 30 minutes, 45 minutes, 75 minutes, 135 minutes, 4 hours, 8 hours and 24 hours after administration. The blood samples were collected in a sample tube with EDTA, and immediately centrifuged under 4000 rpm for 0.5 minutes at 4° C., and then the plasma was transferred to another sample tube and stored at −20° C.
The method and instruments for pharmacokinetics test of samples were as follows: • HPLC: Shimadzu (DGV-20A3, Serial NO: SSI-3-0536; LC-20AD Serial NO: • L20104551674 USB and L20104551673 USB), CTC Analytics HTC PAL System (Serial NO: 4353); • MS: AB API4000 Q Trap LC/MS/MS instrument (Serial NO. AR19020706) • Column: Phenomenex Luna 5μ C18 (2.0×50 mm) • Mobile phase: 100% acetonitrile (2 mM ammonium acetate) and 100% water (2 mM ammonium acetate) • Quantitative Method: internal standard method

[7] = male, rat, plasma, iv, administrated intravenously
[8] = male, rat, plasma, po, administrated orally

## CCOc1ccc(Cc2cc([C@@H]3O[C@H](CO)[C@@H](O)[C@H](O)[C@H]3O)ccc2Cl)cc1 [Compound 1, Dapagliflozin, reference compound]
Male SD rats [1]; glucose 2 g/kg 15 minutes after administration, 15 minutes after glucose
  Blood glucose: 97.2 ± 17.36 mg/dL
Male SD rats [1]; glucose 2 g/kg 15 minutes after administration, 30 minutes after glucose
  Blood glucose: 102.6 ± 20.44 mg/dL
Male SD rats [1]; glucose 2 g/kg 15 minutes after administration, 1 hour after glucose
  Blood glucose: 94.8 ± 17.11 mg/dL
Male SD rats [1]; glucose 2 g/kg 15 minutes after administration, 2 hours after glucose
  Blood glucose: 72.0 ± 10.95 mg/dL
Male SD rats [1]; glucose 2 g/kg 15 minutes after administration
  ΔAUC: 20.2 ± 19.32 mg·h/dL
Male SD rats [1]; time 0 (baseline 15 minutes after administration, before glucose 2 g/kg)
  Blood glucose: 85.2 ± 4.53 mg/dL
[2]; 0 min
  Residual percentage of compounds in human liver microsome: 100.00%
[2]; 15 min
  Residual percentage of compounds in human liver microsome: 100.36%
[2]; 30 min
  Residual percentage of compounds in human liver microsome: 102.10%
[2]; 45 min
  Residual percentage of compounds in human liver microsome: 101.77%
[3]; 0 min
  Residual percentage of compounds in rat liver microsome: 100.00%
[3]; 15 min
  Residual percentage of compounds in rat liver microsome: 88.37%
[3]; 30 min
  Residual percentage of compounds in rat liver microsome: 90.68%
[3]; 45 min
  Residual percentage of compounds in rat liver microsome: 83.66%
Male SD rats [4]
  Urine glucose: 294.90 ± 12.29 mmol/L
Male SD rats [5]; glucose 2 g/kg 8 hours after administration, 15 minutes after glucose
  Blood glucose: 96.60 ± 21.70 mg/dL
Male SD rats [5]; glucose 2 g/kg 8 hours after administration, 30 minutes after glucose
  Blood glucose: 131.40 ± 8.25 mg/dL
Male SD rats [5]; glucose 2 g/kg 8 hours after administration, 1 hour after glucose
  Blood glucose: 123.60 ± 4.53 mg/dL
Male SD rats [5]; glucose 2 g/kg 8 hours after administration, 2 hours after glucose
  Blood glucose: 72.60 ± 6.81 mg/dL
Male SD rats [5]; glucose 2 g/kg 8 hours after administration
  ΔAUC: 107.90 ± 8.53 mg·h/dL
Male SD rats [5]; time 0 (baseline 8 hours after administration, before glucose 2 g/kg)
  Blood glucose: 50.40 ± 9.52 mg/dL
[6]; administrated intravenously
  CI_obs: 2.99 mL/min/kg
  Vss_obs: 0.903 L/kg
[6]; [7]
  AUC(0-inf): 56500 ng·h/mL
  AUC(0-t): 55800 ng·h/mL
  C0: 11000 ng/mL
  MRT: 4.76 h
  half-life: 3.95 h
[6]; [8]
  AUC(0-inf): 39100 ng·h/mL
  AUC(0-t): 41400 ng·h/mL
  C0: 3880 ng/mL
  Tmax: 1.25 h
  half-life: 4.14 h
[6]; male, rat, plasma, po, administrated orally, read-out: F (oral bioavailability)
  bioavailability: 69.1%
